From patent US9744122B2, “Topical formulation for pain relief” (priority 2013, dated 2017)

Key:
[1] = testing of topical pain relief; format: in vivo
Excerpt: A new route of administration for mannitol for the specific indication of pain is disclosed. The topical composition allows for transdermal delivery of mannitol. […] The ingredients, including mannitol, are typically classified as natural health products.
(§1) Therefore, an improved topical composition includes from 0.25% up to 20.0% of menthol, by weight.

[2] = absorption of mannitol through skin; details: when menthol is included in the composition
Excerpt: as §1

TRPV1 receptor = TRPV1 receptor (Homo sapiens, UniProt Q8NER1); assay: inventors' own studies on mechanism of topical pain relief; details: distinct from osmotic effects
Excerpt: The TRPV1 receptor is present on sensory nerves in the skin and is implicated in neurogenic inflammation, acute pain and chronic pain.

Chain of TRPV1 receptor (Q8NER1 whole entry): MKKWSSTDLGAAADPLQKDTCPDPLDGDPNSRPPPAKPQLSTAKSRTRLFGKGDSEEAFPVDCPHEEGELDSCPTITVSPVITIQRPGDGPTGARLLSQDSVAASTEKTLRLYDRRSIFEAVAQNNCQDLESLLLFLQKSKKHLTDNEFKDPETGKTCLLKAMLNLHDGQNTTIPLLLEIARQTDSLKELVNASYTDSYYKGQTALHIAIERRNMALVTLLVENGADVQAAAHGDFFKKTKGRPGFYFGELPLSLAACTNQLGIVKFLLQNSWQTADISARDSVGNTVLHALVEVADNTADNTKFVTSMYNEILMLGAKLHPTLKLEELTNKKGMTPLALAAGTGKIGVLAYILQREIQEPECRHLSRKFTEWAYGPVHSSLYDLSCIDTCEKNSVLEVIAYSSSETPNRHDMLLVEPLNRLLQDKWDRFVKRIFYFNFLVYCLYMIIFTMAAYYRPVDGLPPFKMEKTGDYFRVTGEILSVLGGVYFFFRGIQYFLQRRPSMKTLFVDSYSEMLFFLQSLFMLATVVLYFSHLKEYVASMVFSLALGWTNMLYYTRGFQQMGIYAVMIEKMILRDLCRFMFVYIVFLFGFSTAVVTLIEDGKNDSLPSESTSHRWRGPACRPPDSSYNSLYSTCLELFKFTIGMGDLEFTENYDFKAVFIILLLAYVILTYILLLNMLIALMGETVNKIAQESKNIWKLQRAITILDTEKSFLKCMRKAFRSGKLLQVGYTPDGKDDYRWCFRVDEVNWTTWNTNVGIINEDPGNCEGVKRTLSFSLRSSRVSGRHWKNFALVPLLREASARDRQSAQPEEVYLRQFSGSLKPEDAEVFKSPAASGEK

Compound | pain relief ([1]; when menthol is included in the composition) | absorption through skin [2] | effect on TRPV1 receptor (TRPV1 receptor) | effectiveness of menthol content in the topical composition ([1]; 1.25% menthol by weight)
OC[C@@H](O)[C@@H](O)[C@H](O)[C@H](O)CO [mannitol] | improved pain relief | much more effectively absorbed | down-regulation | 
CC1CCC(C(C)C)C(O)C1 (stereo not shown) [menthol] |  |  |  | effective
